According to PubChem BioAssay (NCI):
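In this assay, cells in 96-well plates receive the compound at five concentrations for 48 hours. Endpoints are linearly interpolated between the surrounding concentrations. GI50 is the concentration that inhibits growth by half. TGI marks complete inhibition of growth.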

Assays:
Test in all cases: NCI anticancer screen, dose series, 48 h
[1] = test system: ACHN renal
[2] = test system: SK-MEL-2 melanoma
[3] = test system: EKVX NSCLC
[4] = test system: HS 578T breast
[5] = test system: HT29 colon
[6] = test system: SF-268 CNS
[7] = test system: HOP-62 NSCLC
[8] = test system: COLO 205 colon
[9] = test system: OVCAR-4 ovarian
[10] = test system: MDA-MB-231 breast

Row | Compound | GI50 [1] | TGI [1] | GI50 [2] | TGI [2] | GI50 [3] | TGI [3] | GI50 [4] | TGI [4] | GI50 [5] | TGI [5] | GI50 [6] | TGI [6] | GI50 [7] | TGI [7] | GI50 [8] | TGI [8] | GI50 [9] | TGI [9] | GI50 [10] | TGI [10]
1 | Clc1ccc2c(NCCNc3nc(N4CCCCC4)nc4ccccc34)ccnc2c1 | 1.79 µM | 3.59 µM | 1.79 µM | 3.83 µM | 4.07 µM | 17.2 µM | 3.04 µM | 8.39 µM | 1.58 µM | 4.1 µM | 2.39 µM | 7.33 µM | 2.62 µM | 8.84 µM | 1.19 µM | 2.84 µM | 2.81 µM | 13.8 µM | – | –
2 | CC/C(=N/O)C(C)C(=O)CCC(=O)Nc1ccc(Cl)cc1 (centres undefined) | – | > 100 µM | – | > 100 µM | – | > 100 µM | – | – | – | > 100 µM | – | > 100 µM | – | – | – | > 100 µM | – | > 100 µM | – | –
3 | C=CCC(O)c1cc(OC)ccc1OC (centres undefined) | – | > 100 µM | – | > 100 µM | – | > 100 µM | – | – | – | > 100 µM | – | > 100 µM | – | > 100 µM | – | > 100 µM | – | > 100 µM | – | –
4 | COC(=O)c1ccc(N/C=C(/C#N)c2ccsc2)cc1 | – | 18.8 µM | – | 50.7 µM | – | 31.4 µM | – | – | – | 25.3 µM | – | 37 µM | – | 28.2 µM | – | > 100 µM | – | – | – | –
5 | CNC(=O)NCCCCC(NC(=O)OCc1ccccc1)C(=O)OCc1ccccc1 (centres undefined) | – | 33.8 µM | – | 61.1 µM | – | > 100 µM | – | – | – | > 100 µM | – | – | – | 29.1 µM | – | 31.9 µM | – | 46.5 µM | – | –
6 | CC1=C(C(=O)NCc2ccccc2)C(c2ccc(N(C)C)cc2)C(C(=O)NCc2ccccc2)=C(C)N1 | – | > 100 µM | – | > 100 µM | – | > 100 µM | – | – | – | > 100 µM | – | – | – | > 100 µM | – | > 100 µM | – | > 100 µM | – | –
7 | NC1=CC(=O)C(=O)c2ccccc21 | 16.2 µM | 50.1 µM | – | – | 18.3 µM | 55.8 µM | 12.1 µM | 40.6 µM | 31.9 µM | 94.3 µM | 18.8 µM | 62.3 µM | 18 µM | 40.7 µM | 26.6 µM | > 100 µM | – | – | 11 µM | 30.9 µM
8 | NC(CCSCCF)C(=O)O (centres undefined) | – | > 100 µM | – | > 100 µM | – | > 100 µM | – | – | – | > 100 µM | – | > 100 µM | – | > 100 µM | – | > 100 µM | – | > 100 µM | – | –
9 | C=CC(=O)OCCCS(=O)(=O)[O-].C=CC(=O)OCCCS(=O)(=O)[O-].NC1CCCCC1N.[Pt+4] | > 25 µM | > 25 µM | > 25 µM | > 25 µM | > 25 µM | > 25 µM | – | – | > 25 µM | > 25 µM | > 25 µM | > 25 µM | – | – | > 25 µM | > 25 µM | > 25 µM | > 25 µM | – | –
10 | COc1ccc(C2C(C(=O)O)=C(CO)Oc3cc4c(cc32)OCO4)c(OC)c1 (centres undefined) | – | > 100 µM | – | – | – | > 100 µM | – | – | – | > 100 µM | – | – | – | 72 µM | – | > 100 µM | – | > 100 µM | – | –
11 | O=C(CC(=O)c1cccc2ccccc12)C(=O)Nc1nccs1 | – | > 100 µM | – | > 100 µM | – | > 100 µM | – | – | – | > 100 µM | – | > 100 µM | – | > 100 µM | – | > 100 µM | – | > 100 µM | – | –
12 | CCOC(=O)C1=C(Nc2cccc3ccccc23)OCC1=O | – | > 100 µM | – | > 100 µM | – | > 100 µM | – | – | – | > 100 µM | – | > 100 µM | – | > 100 µM | – | > 100 µM | – | > 100 µM | – | –
13 | O=C(Oc1c(Cl)c(Cl)c(Cl)c(Cl)c1Cl)C1CCCN1C(=O)OCc1ccccc1 (centres undefined) | 2.62 µM | 8.09 µM | 2.28 µM | 4.49 µM | – | – | 2.92 µM | 10.4 µM | 3.71 µM | 12 µM | 4 µM | 15.6 µM | 3.45 µM | 14.9 µM | 2.01 µM | 3.88 µM | 2.66 µM | 10.6 µM | 2.42 µM | 6.6 µM
14 | C#CCOCn1cnc2c(N)ncnc21 | – | > 100 µM | – | > 100 µM | – | > 100 µM | – | – | – | > 100 µM | – | > 100 µM | – | > 100 µM | – | > 100 µM | – | > 100 µM | – | –
15 | O=c1c2cc(Br)ccc2n(C2OC(CO)C(O)C(O)C2O)c(=S)n1-c1ccccc1 (centres undefined) | – | > 100 µM | – | > 100 µM | – | > 100 µM | – | – | – | > 100 µM | – | > 100 µM | – | > 100 µM | – | > 100 µM | – | > 100 µM | – | –
16 | CC1=CC[C@@H]2C(=O)C=CC=C[C@H]12.[C-]#[O+].[C-]#[O+].[C-]#[O+].[Fe] | > 100 µM | > 100 µM | > 100 µM | > 100 µM | – | – | – | – | > 100 µM | > 100 µM | – | – | > 100 µM | > 100 µM | – | – | > 100 µM | > 100 µM | – | –
17 | CCSc1nnc(-c2ccc3ccccc3c2O)n1-c1ccccc1 | – | – | – | – | – | – | > 100 µM | > 100 µM | – | – | 8.02 µM | > 100 µM | 21.5 µM | > 100 µM | – | – | 7.22 µM | > 100 µM | > 100 µM | > 100 µM
18 | Cc1c(-c2cc(-c3ccccc3)n[nH]c2=O)c2ccccc2n1C | – | > 100 µM | – | > 100 µM | – | > 100 µM | – | – | – | > 100 µM | – | > 100 µM | – | > 100 µM | – | > 100 µM | – | > 100 µM | – | –
19 | CC(C)=CC1(C)/C(=N\O)C(C)(CC(C)C)C(=O)N1O (centres undefined) | – | > 100 µM | – | > 100 µM | – | > 100 µM | – | – | – | > 100 µM | – | – | – | > 100 µM | – | > 100 µM | – | > 100 µM | – | –
20 | CCCCCCCCCCCc1cc(=O)c2c(O)cccc2o1 | – | > 100 µM | – | > 100 µM | – | > 100 µM | – | – | – | > 100 µM | – | > 100 µM | – | > 100 µM | – | > 100 µM | – | > 100 µM | – | –
21 | COc1ccccc1NC(=O)C1=C(C)NC(C)=C(C(=O)Nc2ccccc2OC)C1c1ccc(C2C(C(=O)Nc3ccccc3OC)=C(C)NC(C)=C2C(=O)Nc2ccccc2OC)cc1 | – | 10 µM | – | 5.77 µM | – | 6.91 µM | – | – | – | 4.56 µM | – | 11.6 µM | – | 14 µM | – | 10.2 µM | – | 15.6 µM | – | –
